According to patent publication US20250092064A1, “BENZOTRIAZOLE COMPOUND” (DAIICHI SANKYO COMPANY, LIMITED, priority 2022, published 2025):

How the values were obtained:
[1] = test system: NQO1 activity in Hepa1c1c7 cells; assay: NAD(P)H: quinone oxidoreductase-1 (NQO1) enzyme induction assay (in vitro); assay type: cell-based, mouse; details: Mus musculus, Hepa-1c1c7, NQO1 activity with 400 nM test compound as a ratio from the base without compound, about 48 hr
Method: The NQO1 assay was performed based on a previous report (Methods in Enzymology 2004; 382: 243-258). Hepa1c1c7 cells (mouse hepatocyte cell line, ATCC, cat. no. CRL-2026) were cultured in D-MEM medium containing 10% FBS and 1% penicillin/streptomycin (5% CO2, 37° C.), and seeded into 96-well plates (Corning REF. 353072) at 1×10^4 cells/well. A portion of the wells were prepared with medium only for background measurement without seeding cells. The next day, 400 nM of the test compound (0.004% of the final concentration in DMSO) dissolved in DMSO was added thereto, and the wells were incubated for about 48 hr. A well without adding the test compound was prepared for base activity assay in part. […] After the medium was removed, 50 μL of the cell lysate was added and incubated at 37° C. for 10 minutes, followed by shaking at room temperature for 10 minutes. 200 μL of reaction solution was added thereto, and allowed to stand for 5 minutes at room temperature. 50 μL of the stop solution was added thereto, and absorbance was measured at 610 nm on a SpectraMax PLUS384 (Molecular devices) or […] Pharma Biomedical). The test results were analyzed in Excel, and the NQO1 activity upon addition of 400 nM of test compound was calculated as a ratio from the base without the compound. NQO1 activity ratio when test compound is added=(absorbance when test compound is added-absorbance of medium only)/(absorbance without addition of compound-absorbance of medium only) [numerical formula 2] The results of each test compound in this test are shown in the following Table 2 (A:5<NQO1 activity ratio, B:3<NQO1 activity ratio≤5).

[2] = biological target: binding between Nrf2 and Keap1 (Homo sapiens (Human), UniProt Q14145); assay: FP assay (in vitro): inhibition of Nrf2-Keap1 binding by fluorescence polarization; details: GST-fused human Keap1 (325-642) 20 nM, FITC-labeled Nrf2 peptide 10 nM, 2 hr at room temperature
Sequence of binding between Nrf2 and Keap1 (Q14145 325-624 limits assumed): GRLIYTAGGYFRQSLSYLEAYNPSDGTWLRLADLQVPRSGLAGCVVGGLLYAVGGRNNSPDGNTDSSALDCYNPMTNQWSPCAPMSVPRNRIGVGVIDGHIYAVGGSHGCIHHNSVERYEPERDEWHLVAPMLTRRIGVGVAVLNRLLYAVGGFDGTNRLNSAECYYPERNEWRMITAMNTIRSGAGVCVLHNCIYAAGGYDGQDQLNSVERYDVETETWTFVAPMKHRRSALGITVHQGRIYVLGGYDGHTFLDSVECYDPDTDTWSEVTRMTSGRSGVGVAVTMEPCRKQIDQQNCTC

SMILES | IC50 [2] | fold induction at 0.4 µM [1]
CCOc1ccc2c(n1)O[C@H](CC)CN(Cc1cc(C(CC(=O)O)c3ccc4c(nnn4C)c3C)cc3ccsc13)S2(=O)=O (stereo partly drawn) [Example 19, 3-(1,4-Dimethyl-1H-benzotriazol-5-yl)-3-(7-{[(4R)-7-ethoxy-4-ethyl-1,1-dioxido-3,4-dihydro-2H-pyrido[2,3-b][1,4,5]oxathiazepin-2-yl]methyl}-1-benzothiophen-5-yl)propanoic acid] | 10 to 30 nM | > 5
Cc1c(C(CC(=O)O)c2cc3c(c(CN4CC5(CCOCC5)Oc5ncccc5S4(=O)=O)c2)CCC3)ccc2c1nnn2C (stereo not drawn) [Example 33, 3-(1,4-Dimethyl-1H-benzotriazol-5-yl)-3-{7-[(1,1′-dioxido-2,3,5,6-tetrahydrospiro[pyran-4,4′-pyrido[2,3-b][1,4,5]oxathiazepine]-2′(3′H)-yl)methyl]-2,3-dihydro-1H-inden-5-yl}propanoic acid] | 30 to 100 nM | –
CC[C@@H]1CN(Cc2cc(C(CC(=O)O)c3cc(Cl)c4c(nnn4C)c3C)cc3c2CCC3)[C@@H](C)c2ncccc2O1 (single isomer, unassigned) [Example 72, (3S*)-3-(7-Chloro-1,4-dimethyl-1H-benzotriazol-5-yl)-3-(7-{[(2R,5S)-2-ethyl-5-methyl-2,3-dihydropyrido[2,3-f][1, 4]oxazepin-4(5H)-yl]methyl}-2,3-dihydro-1H-inden-5-yl)propanoic acid] | ≤ 10 nM | –
Cc1c([C@H](CC(=O)O)c2cc(CN3CC4(CC4)Oc4ccc(O)nc4C3C)c3sccc3c2)ccc2c1nnn2C (single isomer, unassigned) [Example 87, (3R)-3-(1,4-Dimethyl-1H-benzotriazol-5-yl)-3-(7-{[(5′S*)-7′-hydroxy-5′-methyl-3′H-spiro[cyclopropane-1,2′-pyrido[2,3-f][1,4]oxazepin]-4′(5′H)-yl]methyl}-1-benzothiophen-5-yl)propanoic acid] | – | > 5
CC[C@@H]1CN(Cc2cc([C@@H](CC(=O)O)c3ccc4c(nnn4C)c3C)cc3ccsc23)C(C)c2nc(O)ccc2O1 (relative stereo) [Example 79, (3R)-3-(1,4-Dimethyl-1H-benzotriazol-5-yl)-3-(7-{[(2R,5R*)-2-ethyl-7-hydroxy-5-methyl-2,3-dihydropyrido[2,3-f][1,4]oxazepin-4(5H)-yl]methyl}-1-benzothiophen-5-yl)propanoic acid] | – | > 5
Cc1c(C(CC(=O)O)c2cc3c(c(CN4CC5(COC5)Oc5ncccc5S4(=O)=O)c2)CCC3)ccc2c1nnn2C (stereo not drawn) [Example 36, 3-(1,4-Dimethyl-1H-benzotriazol-5-yl)-3-{7-[(1,1′-dioxido-spiro[oxetane-3,4′-pyrido[2,3-b][1,4,5]oxathiazepine]-2′ (3′H)-yl)methyl]-2,3-dihydro-1H-inden-5-yl}propanoic acid] | 10 to 30 nM | –
CC[C@@H]1CN(Cc2cc([C@@H](CC(=O)O)c3cnc4c(nnn4C)c3C)cc3ccsc23)C(C)c2nc(O)ccc2O1 (single isomer, unassigned) [Example 81, (3R)-3-(3,7-Dimethyl-3H-[1,2,3]triazolo[4,5-b]pyridin-6-yl)-3-(7-{[(2R,5S*)-2-ethyl-7-hydroxy-5-methyl-2,3-dihydropyrido[2,3-f][1,4]oxazepin-4(5H)-yl]methyl}-1-benzothiophen-5-yl)propanoic acid] | – | 3 to 5
CC[C@@H]1CN(Cc2cc(C(CC(=O)O)c3ccc4c(nnn4C)c3C)cc3c2CCC3)S(=O)(=O)c2ccc(Cl)cc2O1 (stereo partly drawn) [Example 15, 3-(7-{[(4R)-7-Chloro-4-ethyl-1,1-dioxido-3,4-dihydro-2H-5,1,2-benzoxathiazepin-2-yl]methyl}-2,3-dihydro-1H-inden-5-yl)-3-(1,4-dimethyl-1H-benzotriazol-5-yl)propanoic acid] | 30 to 100 nM | –

Continued, in another order:

IC50 [2] | SMILES | fold induction at 0.4 µM [1]
≤ 10 nM | CC[C@@H]1CN(Cc2cc(C(CC(=O)O)c3ccc4c(nnn4C)c3C)cc3c2CCC3)S(=O)(=O)c2cc(Cl)c(F)cc2O1 (stereo partly drawn) [Example 13, 3-(7-{[(4R)-8-Chloro-4-ethyl-7-fluoro-1,1-dioxido-3,4-dihydro-2H-5,1,2-benzoxathiazepin-2-yl]methyl}-2,3-dihydro-1H-inden-5-yl)-3-(1,4-dimethyl-1H-benzotriazol-5-yl)propanoic acid] | > 5
30 to 100 nM | CC[C@@H]1CN(Cc2cc(C(CC(=O)O)c3ccc4c(nnn4C)c3C)cc3ccsc23)[C@H](C)c2ncccc2O1 (stereo partly drawn) [Example 73, 3-(1,4-Dimethyl-1H-benzotriazol-5-yl)-3-(7-{[(2R,5R)-2-ethyl-5-methyl-2,3-dihydropyrido[2,3-f][1,4]oxazepin-4(5H)-yl]methyl}-1-benzothiophen-5-yl)propanoic acid] | > 5
10 to 30 nM | CC[C@@H]1CN(Cc2cc(C(CC(=O)O)c3ccc4c(nnn4CCCS(C)(=O)=O)c3C)cc3ccsc23)S(=O)(=O)c2cc(Cl)cnc2O1 (stereo partly drawn) [Example 57, 3-(7-{[(4R)-8-Chloro-4-ethyl-1,1-dioxido-3,4-dihydro-2H-pyrido[2,3-b][1,4,5]oxathiazepin-2-yl]methyl}-1-benzothiophen-5-yl)-3-{4-methyl-1-[3-(methylsulfonyl)propyl]-1H-benzotriazol-5-yl}propanoic acid] | > 5
10 to 30 nM | CC[C@@H]1CN(Cc2cc(C(CC(=O)O)c3ccc4c(nnn4CC(C)(C)O)c3C)cc3ccsc23)S(=O)(=O)c2cc(Cl)cnc2O1 (stereo partly drawn) [Example 56, 3-(7-{[(4R)-8-Chloro-4-ethyl-1,1-dioxido-3,4-dihydro-2H-pyrido[2,3-b][1,4,5]oxathiazepin-2-yl]methyl}-1-benzothiophen-5-yl)-3-[1-(2-hydroxy-2-methylpropyl)-4-methyl-1H-benzotriazol-5-yl]propanoic acid] | > 5
10 to 30 nM | Cc1c(C(CC(=O)O)c2cc3c(c(CN4CC5(CCC5)Oc5ncccc5S4(=O)=O)c2)CCC3)ccc2c1nnn2C (stereo not drawn) [Example 35, 3-(1,4-Dimethyl-1H-benzotriazol-5-yl)-3-{7-[(1,1′-dioxido-spiro[cyclobutane-1,4′-pyrido[2,3-b][1,4,5]oxathiazepine]-2′(3′H)-yl)methyl]-2,3-dihydro-1H-inden-5-yl}propanoic acid] | –
30 to 100 nM | Cc1c([C@H](CC(=O)O)c2cc(CN3C[C@@H](C4CC4)Oc4ccc(O)nc4C3C)c3sccc3c2)ccc2c1nnn2C (single isomer, unassigned) [Example 84, (3R)-3-(7-{[(2R,5R*)-2-Cyclopropyl-7-hydroxy-5-methyl-2,3-dihydropyrido[2,3-f][1,4]oxazepin-4(5H)-yl]methyl}-1-benzothiophen-5-yl)-3-(1,4-dimethyl-1H-benzotriazol-5-yl)propanoic acid] | –
≤ 10 nM | CCC1c2ncccc2O[C@H](CC)CN1Cc1cc([C@H](CC(=O)O)c2ccc3c(nnn3C)c2C)cc2ccsc12 (single isomer, unassigned) [Example 77, (3S)-3-(7-{[(2R,5S*)-2,5-Diethyl-2,3-dihydropyrido[2,3-f][1,4]oxazepin-4(5H)-yl]methyl}-1-benzothiophen-5-yl)-3-(1,4-dimethyl-1H-benzotriazol-5-yl)propanoic acid] | –
10 to 30 nM | CC[C@@H]1CN(Cc2cc([C@H](CC(=O)O)c3ccc4c(nnn4C)c3C)cc3ccsc23)[C@@H](C)c2ncccc2O1 [Example 62, (3S)-3-(1,4-Dimethyl-1H-benzotriazol-5-yl)-3-(7-{[(2R,5S)-2-ethyl-5-methyl-2,3-dihydropyrido[2,3-f][1,4]oxazepin-4(5H)-yl]methyl}-1-benzothiophen-5-yl)propanoic acid] | –
